Data from patent publication EP3807270B1, “NOVEL HETEROARYL HETEROCYCLYL COMPOUNDS FOR THE TREATMENT OF AUTOIMMUNE DISEASE” (F. Hoffmann-La Roche AG, priority 2018, dated 2019).

Assays:
human TLR8 = target: T1, human TLR8 (Homo sapiens, UniProt Q9NR97); test: HEK293-Blue-hTLR-8 cells assay (SEAP reporter, R848 stimulation); format: cell-based; settings: HEK293-Blue-hTLR8 cells, R848, 20 hrs; read-out: HEK/hTLR8 IC50
T1 construct: host or cells: HEK293 (HEK-Blue)
T1 sequence (Q9NR97 27-1041): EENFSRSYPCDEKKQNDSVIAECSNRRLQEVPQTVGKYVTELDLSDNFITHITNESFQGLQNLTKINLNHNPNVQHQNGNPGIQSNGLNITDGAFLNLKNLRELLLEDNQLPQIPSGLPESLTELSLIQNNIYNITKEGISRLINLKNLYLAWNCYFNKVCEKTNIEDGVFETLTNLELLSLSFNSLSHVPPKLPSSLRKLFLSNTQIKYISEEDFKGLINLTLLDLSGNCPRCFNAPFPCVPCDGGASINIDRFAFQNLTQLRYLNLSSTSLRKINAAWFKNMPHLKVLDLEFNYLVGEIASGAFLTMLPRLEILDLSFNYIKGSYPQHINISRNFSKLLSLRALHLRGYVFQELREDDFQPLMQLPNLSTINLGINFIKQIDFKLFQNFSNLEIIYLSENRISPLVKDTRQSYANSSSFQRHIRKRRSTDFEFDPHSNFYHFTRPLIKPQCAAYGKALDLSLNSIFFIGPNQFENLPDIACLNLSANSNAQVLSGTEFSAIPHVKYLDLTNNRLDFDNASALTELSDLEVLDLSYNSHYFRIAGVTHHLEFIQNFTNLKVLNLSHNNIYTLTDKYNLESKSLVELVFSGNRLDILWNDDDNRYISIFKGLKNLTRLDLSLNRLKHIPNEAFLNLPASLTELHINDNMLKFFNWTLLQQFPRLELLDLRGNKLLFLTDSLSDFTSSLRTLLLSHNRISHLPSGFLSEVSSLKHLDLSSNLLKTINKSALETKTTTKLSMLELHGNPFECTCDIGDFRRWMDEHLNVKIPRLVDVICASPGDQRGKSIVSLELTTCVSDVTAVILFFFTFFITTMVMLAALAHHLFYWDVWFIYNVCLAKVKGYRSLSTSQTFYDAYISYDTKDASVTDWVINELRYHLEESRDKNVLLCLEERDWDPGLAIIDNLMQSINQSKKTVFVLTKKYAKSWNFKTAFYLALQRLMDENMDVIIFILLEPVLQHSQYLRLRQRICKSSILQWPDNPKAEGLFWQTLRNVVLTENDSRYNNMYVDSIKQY
How it was run: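 HEK293-Blue-hTLR8 cells (NF-κB/AP-1-driven SEAP) in DMEM/10% FBS were treated with serially diluted compound (1% DMSO final) plus R848 for 20 hrs at 37 °C. Supernatant SEAP was measured with QUANTI-Blue after 2 hrs at 37 °C, absorbance 620-655 nm; antagonism seen as reduced reporter.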

CYP2D6 = target: T2, CYP2D6 (Homo sapiens, UniProt P10635); test: CYP inhibition assay in human liver microsome; format: in vitro ADME; settings: human liver microsomes, probe dextromethorphan, 10µM test compound, dextromethorphan substrate, <0: not or weak inhibitor, read-out: CYP 2D6 inhibition %@10µM
T2 construct: tissue BD-Gentest 452117; host or cells: human liver microsomes
How it was run: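 HLM mixed with CYP2D6 substrate, preincubated 10 min at 37 °C, started with NADPH regenerating system and run 10 min at 37 °C before acetonitrile quench. Metabolite measured by RapidFire MS/MS against D3-dextrorphan internal standard. % inhibition scaled between DMSO and concentrated-inhibitor controls.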

T2 sequence (P10635 whole entry): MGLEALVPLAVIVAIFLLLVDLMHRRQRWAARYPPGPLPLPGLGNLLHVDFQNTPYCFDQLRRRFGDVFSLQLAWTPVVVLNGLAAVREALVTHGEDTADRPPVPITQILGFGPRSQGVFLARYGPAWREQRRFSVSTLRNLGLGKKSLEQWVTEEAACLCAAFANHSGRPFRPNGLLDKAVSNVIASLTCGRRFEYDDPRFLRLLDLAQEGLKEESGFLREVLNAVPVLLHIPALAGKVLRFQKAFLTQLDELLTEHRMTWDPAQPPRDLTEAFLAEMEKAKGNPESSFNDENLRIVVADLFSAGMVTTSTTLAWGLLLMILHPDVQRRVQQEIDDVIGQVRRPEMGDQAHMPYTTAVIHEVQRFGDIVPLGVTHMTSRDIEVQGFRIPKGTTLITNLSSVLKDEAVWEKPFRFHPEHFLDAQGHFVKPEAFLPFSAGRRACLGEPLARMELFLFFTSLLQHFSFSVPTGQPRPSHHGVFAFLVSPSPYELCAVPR

Row | IC50 (human TLR8) [nM] | inhibition at 10 min, 10 µM (CYP2D6) [%] | Structure (SMILES)
1 | 2 | -2.5 | C[C@@H]1CN(c2ccc(C#N)c3nccnc23)C[C@H](CN2CCN(c3cc4c(cn3)CCN[C@@H]4C)CC2)O1 (single isomer, unassigned) [Example 87]
2 | 4 |  | [2H]c1nc2c(C#N)ccc(N3C[C@H](CN4CCN(c5ccc6c(n5)CN[C@@H]6C)CC4)O[C@H](C)C3)c2nc1[2H] (single isomer, unassigned) [Example 97]
3 |  | 52.5 | C[C@@H]1CN(c2ccc(C#N)c3ncccc23)C[C@H](CN2CCN(c3ccncc3)CC2)O1 [ER-888286, reference compound]
4 | 5 |  | [2H]c1ccc2c(N3C[C@H](CN4CCN(c5ccc6c(n5)CN[C@@H]6C)CC4)O[C@H](C)C3)ccc(C#N)c2n1 (single isomer, unassigned) [Example 98]
5 | 5 |  | [2H]c1ccc2c(N3C[C@H](CN4CCN(c5ccc6c(n5)CN[C@H]6C)CC4)O[C@H](C)C3)ccc(C#N)c2n1 (single isomer, unassigned) [Example 99]
6 | 15 | -2.5 | C[C@@H]1CN(c2ccc(C#N)c3ncccc23)C[C@H](CN2CCN(c3ccc4c(c3)CNCC4)CC2)O1 [Example 9, 5-[(2R,6S)-2-methyl-6-[[4-(1,2,3,4-tetrahydroisoquinolin-7-yl)piperazin-1-yl]methyl]morpholin-4-yl]quinoline-8-carbonitrile]
7 | 3 |  | [2H]c1nc2c(C#N)ccc(N3C[C@H](CN4CCN(c5cc6c(cn5)[C@@H](C)NCC6)CC4)O[C@H](C)C3)c2nc1[2H] (single isomer, unassigned) [Example 95]
8 | 23 | 2.5 | C[C@@H]1CN(c2ccc(C#N)c3ncccc23)C[C@H](CN2CCN(c3cnc4c(c3)CNC4)CC2)O1 [Example 10, 5-[(2S,6R)-2-[[4-(6,7-dihydro-5H-pyrrolo[3,4-b]pyridin-3-yl)piperazin-1-yl]methyl]-6-methyl-morpholin-4-yl] quinoline-8-carbonitrile]
9 | 3 |  | [2H]c1nc2c(C#N)ccc(N3C[C@H](CN4CCN(c5ccc6c(n5)CN[C@H]6C)CC4)O[C@H](C)C3)c2nc1[2H] (single isomer, unassigned) [Example 96]
10 | 2 | 9.5 | C[C@@H]1CN(c2ccc(C#N)c3nccnc23)C[C@H](CN2CCN(c3cc4c(cn3)CCN[C@H]4C)CC2)O1 (single isomer, unassigned) [Example 88]
11 | 2 |  | [2H]c1nc2c(C#N)ccc(N3C[C@H](CN4CCN(c5cc6c(cn5)[C@H](C)NCC6)CC4)O[C@H](C)C3)c2nc1[2H] (single isomer, unassigned) [Example 94]
12 | 2 |  | C[C@@H]1CN(c2ccc(C#N)c3nccnc23)C[C@H](CN2CCN(c3cc4c(cn3)[C@@H](C)NCC4)CC2)O1 (single isomer, unassigned) [Example 86]
